The text below walks through data of US20130225669A1 (priority 2012, published 2013).

This test concerns Bacillus atrophaeus spores. Kind of test: Qualitative antibacterial effects on spore strips in Releasat medium. Conditions: one week treatment. The test is classed as cell-based. As to the method:
The antibacterial effects of genipin solutions on Bacillus atrophaeus spores was assessed. Using aseptic technique, B. atrophaeus mini spore strips (N=4 per group) with 1.2×10^6 spores per strip (North American Science Associates, Inc., Northwood, Ohio, USA) were either untreated, or treated with either 1 mL PBS, 0.625% genipin in PBS (1.4×10^13 genipin molecules per spore), 90% ethanol, 10% genipin in 90% ethanol (2.2×10^14 genipin molecules per spore), or 10% formalin for one week. Ten percent genipin was used in 90% ethanol for direct comparison to 10% formalin. Solutions were passed through a 0.2 μm Whatman filter (Fisher Scientific, Pittsburgh, Pa., USA) prior to being used to remove extraneous bacteria.
After treating the spore strips for one week they were transferred to Releasat® rapid-readout color changing vials (SGM Biotech, Bozeman, Mont., USA). Releasat® vials have specially formulated soybean-casein digest medium and a pH indicator designed to change color from orange to yellow in the presence of B. atrophaeus growth within 72 hours or remain orange if the spore strips are sterile. The spore strips treated with 10% genipin in 90% ethanol were removed from their respective medium vials and washed in 10 mL of sterile 90% ethanol for 15 minutes after it was noticed that within 90 minutes of placement into the Releasat® medium that the color changed from orange to brown (genipin-induced color change). These spore strips were placed in new Releasat® vials after washing. Spores were incubated at 37° C. and vials were checked after 24, 48, and 72 hours for color change and assessments of turbidity.

For the compound `COC(=O)C1=CO[C@@H](O)C2C(CO)=CC[C@H]12` (stereo in doubt) [genipin, methyl (1R,2R,6S)-2-hydroxy-9-(hydroxymethyl)-3-oxabicyclo [4.3.0]nona-4,8-diene-5-carboxylate], the turbidity of medium entry reads like this: (0.625% genipin in PBS) “less turbid than the PBS and untreated control at all time points”; (10% genipin in 90% ethanol) “less turbid than the 90% ethanol and untreated control after 24 and 48 hours only”. Moreover, the “color of Releasat medium (orange sterile, yellow growth)” value is, setting by setting: (0.625% genipin in PBS, within 24 hours) “changed to yellow”; (10% genipin in 90% ethanol, within 24 hours) “changed to yellow”.
Regarding `C=O` [formalin, reference compound], the “color of Releasat medium (orange sterile, yellow growth)” value (10% formalin, read after 72 hours) is listed as “remained orange”.
